How the values were obtained:
[1] = target: T1, full length AKT3 (Homo sapiens, UniProt Q9Y243); test: AKT enzyme assay (substrate phosphorylation, SPA), full length AKT3; assay type: biochemical; conditions: in at least one experimental run; pIC50 = -log(IC50), IC50 in molar units
T1 construct: Full length AKT2 and full length AKT3 were cloned, expressed and purified in a similar fashion; His tag (inferred: made in a similar fashion to AKT1 in pFastbacHTb with nickel purification) (N); made in house; host or cells: baculovirus; insect cells (by analogy with AKT1)
Method: Compounds of the present invention are tested for AKT 1, 2, and 3 protein serine kinase inhibitory activity in substrate phosphorylation assays. This assay examines the ability of small molecule organic compounds to inhibit the serine phosphorylation of a peptide substrate. […] AKT 1, 2 and 3 are also commercially available from Upstate USA, Inc. The method measures the ability of the isolated enzyme to catalyze the transfer of the gamma-phosphate from ATP onto the serine residue of a biotinylated synthetic peptide SEQ. […] Substrate phosphorylation is detected by the following procedure:
ATP/well, 1 mM CHAPS, 2 mM DTT, and 1 ul of test compound in 100% DMSO. The reaction is stopped by the addition of 50 ul SPA bead mix (Dulbecco's PBS without Mg^2+ and Ca^2+, 0.1% Triton X-100, 5 mM EDTA, 50 uM ATP, 2.5 mg/ml Streptavidin-coated SPA beads.) The plate is sealed, the beads are allowed to settle overnight, and then the plate is counted in a Packard Topcount Microplate Scintillation Counter (Packard Instrument Co., Meriden, Conn.).
The data for dose responses are plotted as % Control calculated with the data reduction formula 100*(U1−C2)/(C1−C2) versus concentration of compound where U is the unknown value, C1 is the average control value obtained for DMSO, and C2 is the average control value obtained for 0.1M EDTA. […]

[2] = target: T2, full length AKT1 (Homo sapiens, UniProt P31749); test: AKT enzyme assay (substrate phosphorylation, SPA), full length AKT1; assay type: biochemical; conditions: in at least one experimental run; pIC50 = -log(IC50), IC50 in molar units
T2 construct: Full-length human AKT1 gene was amplified by PCR; His tag (from vector pFastbacHTb; N-terminal position is own knowledge of the vector) (N); made in house; host or cells: baculovirus; Sf9 / T. ni insect cells
T2 sequence (P31749 whole entry): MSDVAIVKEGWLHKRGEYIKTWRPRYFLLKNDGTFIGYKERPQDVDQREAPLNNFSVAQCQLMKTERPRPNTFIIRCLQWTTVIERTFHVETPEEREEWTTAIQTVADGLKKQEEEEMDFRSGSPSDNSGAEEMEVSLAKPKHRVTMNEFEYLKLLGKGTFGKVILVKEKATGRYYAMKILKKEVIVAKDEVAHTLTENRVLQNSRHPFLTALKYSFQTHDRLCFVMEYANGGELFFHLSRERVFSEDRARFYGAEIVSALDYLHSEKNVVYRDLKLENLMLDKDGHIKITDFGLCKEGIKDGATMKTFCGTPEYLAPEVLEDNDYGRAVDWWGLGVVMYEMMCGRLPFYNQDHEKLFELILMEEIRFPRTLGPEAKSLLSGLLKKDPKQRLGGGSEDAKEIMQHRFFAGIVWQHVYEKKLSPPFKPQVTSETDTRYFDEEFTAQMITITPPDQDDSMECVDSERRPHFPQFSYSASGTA

T1 sequence (Q9Y243 whole entry): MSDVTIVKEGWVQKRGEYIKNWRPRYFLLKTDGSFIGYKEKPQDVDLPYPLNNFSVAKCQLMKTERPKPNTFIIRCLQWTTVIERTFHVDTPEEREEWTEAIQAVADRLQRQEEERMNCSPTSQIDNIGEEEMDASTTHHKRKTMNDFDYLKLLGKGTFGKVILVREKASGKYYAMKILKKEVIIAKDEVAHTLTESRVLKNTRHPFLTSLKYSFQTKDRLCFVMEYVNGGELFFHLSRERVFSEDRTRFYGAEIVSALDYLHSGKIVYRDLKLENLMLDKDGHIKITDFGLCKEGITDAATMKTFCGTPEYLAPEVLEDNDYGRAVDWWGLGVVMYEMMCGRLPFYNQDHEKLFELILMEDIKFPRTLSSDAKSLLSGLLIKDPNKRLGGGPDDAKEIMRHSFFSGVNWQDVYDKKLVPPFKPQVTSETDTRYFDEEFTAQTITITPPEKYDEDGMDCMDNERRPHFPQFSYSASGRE

Row | SMILES | pIC50 value against full length AKT3 [1] | pIC50 value against full length AKT1 [2]
1 | Cn1ncc(Cl)c1-c1cc(C(=O)N[C@H](CN)Cc2cccc(F)c2)oc1Cl [Example 137, N-{(1S)-2-amino-1-[(3-fluorophenyl)methyl]ethyl}-5-chloro-4-(4-chloro-1-methyl-1H-pyrazol-5-yl)-2-furancarboxamide] | 8.4 | 9.0
2 | Cc1sc(C(=O)N[C@H](CN)Cc2cccc(F)c2)cc1-c1c(Cl)cnn1C [Example 161, N-{(1S)-2-amino-1-[(3-fluorophenyl)methyl]ethyl}-4-(4-chloro-1-methyl-1H-pyrazol-5-yl)-5-methyl-2-thiophenecarboxamide] | 7.6 | 8.8

Reference: patent US8273782B2, “Inhibitors of Akt activity” (GlaxoSmithKline LLC, priority 2007, dated 2012)
